Test results reported in ChEMBL document CHEMBL1201862, “PubChem BioAssay data set” (2004).
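Growth conditions: 96-well plates. Treatment: test compound, 48 hours, 5 concentrations. Analysis: linear interpolation between bracketing concentrations; unreached endpoints set to highest concentration. The concentration for 50% growth inhibition is given as GI50.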 The source made the active and inactive calls. No stated cut-off is given here; in the data, active = GI50 up to about 1.1 µM and inactive = higher.

Experiments:
Assay in all cases: inhibition of tumour cell growth, NCI panel, 48 h
786-0 = test system: 786-0
A549 = test system: A549
EKVX = test system: EKVX
HCC 2998 = test system: HCC 2998
HCT-15 = test system: HCT-15
LOX IMVI = test system: LOX IMVI
NCI-H226 = test system: NCI-H226
NCI-H23 = test system: NCI-H23
NCI-H522 = test system: NCI-H522
OVCAR-3 = test system: OVCAR-3
SF-295 = test system: SF-295
SK-MEL-28 = test system: SK-MEL-28
SK-MEL-5 = test system: SK-MEL-5
SR = test system: SR
TK-10 = test system: TK-10
U-251 = test system: U-251
UACC-257 = test system: UACC-257
UACC-62 = test system: UACC-62
IGROV-1 = test system: IGROV-1
Malme-3M = test system: Malme-3M

SMILES	GI50 (786-0)	GI50 (A549)	GI50 (EKVX)	GI50 (HCC 2998)	GI50 (HCT-15)	GI50 (LOX IMVI)	GI50 (NCI-H226)	GI50 (NCI-H23)	GI50 (NCI-H522)	GI50 (OVCAR-3)	GI50 (SF-295)	GI50 (SK-MEL-28)	GI50 (SK-MEL-5)	GI50 (SR)	GI50 (TK-10)	GI50 (U-251)	GI50 (UACC-257)	GI50 (UACC-62)	GI50 (IGROV-1)	GI50 (Malme-3M)
C/C=C/C[C@@H](C)C(=O)C1C(=O)N[C@@H](C(C)C)C(=O)N(C)CC(=O)N(C)[C@@H](CC(C)C)C(=O)N[C@@H](C(C)C)C(=O)N(C)[C@@H](CC(C)C)C(=O)N[C@@H](C)C(=O)N[C@@H](C)C(=O)N(C)[C@@H](CC(C)C)C(=O)N(C)[C@@H](CC(C)C)C(=O)N(C)[C@@H](C(C)C)C(=O)N1C (stereo not given in full)	7.76 µM (inactive)	3.97 µM (inactive)	8.51 µM (inactive)	2.46 µM (inactive)	5.51 µM	2.82 µM (inactive)	6.11 µM (inactive)	7.83 µM (inactive)	4.19 µM (inactive)	4.09 µM (inactive)	7.28 µM (inactive)	6.37 µM (inactive)	2.99 µM (inactive)	4.07 µM (inactive)	6.1 µM (inactive)	5.94 µM (inactive)	5.33 µM (inactive)	4.5 µM (inactive)	–	–
C[C@]12CCC3c4ccc(O)cc4CC[C@H]3C1CC(=O)NC2=O (stereo not given in full)	> 10 µM (inactive)	> 10 µM (inactive)	–	> 10 µM (inactive)	> 10 µM	> 10 µM (inactive)	> 10 µM (inactive)	> 10 µM (inactive)	–	> 10 µM (inactive)	> 10 µM (inactive)	> 10 µM (inactive)	> 10 µM (inactive)	> 10 µM (inactive)	> 10 µM (inactive)	> 10 µM (inactive)	> 10 µM (inactive)	–	> 10 µM (inactive)	> 10 µM (inactive)
O=C(/C=C/c1ccccc1)NNC(=O)c1c(Cl)c(Cl)c(Cl)c(Cl)c1-c1nc2ccccc2[nH]1	4.5 µM (inactive)	0.0966 µM (active)	17.6 µM (inactive)	21.7 µM (inactive)	24 µM	27.1 µM (inactive)	13.9 µM (inactive)	23.2 µM (inactive)	24.6 µM (inactive)	28.4 µM (inactive)	0.0472 µM (active)	39.5 µM (inactive)	22 µM (inactive)	12.9 µM (inactive)	–	–	27.7 µM (inactive)	15.7 µM (inactive)	6.49 µM (inactive)	26.5 µM (inactive)
S=c1nc(N2CCCCC2)ss1	20.9 µM (inactive)	28.4 µM (inactive)	24.2 µM (inactive)	16.2 µM (inactive)	21.1 µM	–	43.9 µM (inactive)	47.5 µM (inactive)	–	–	29 µM (inactive)	18.4 µM (inactive)	16.6 µM (inactive)	14.2 µM (inactive)	40.6 µM (inactive)	18.2 µM (inactive)	19.8 µM (inactive)	17.5 µM (inactive)	25.1 µM (inactive)	19.3 µM (inactive)
COC(=O)N/N=C/C(=C/Nc1ccccc1)[N+](=O)[O-]	> 100 µM (inactive)	> 100 µM (inactive)	> 100 µM (inactive)	> 100 µM (inactive)	59 µM	> 100 µM (inactive)	–	> 100 µM (inactive)	86.7 µM (inactive)	> 100 µM (inactive)	–	> 100 µM (inactive)	> 100 µM (inactive)	> 100 µM (inactive)	> 100 µM (inactive)	> 100 µM (inactive)	> 100 µM (inactive)	46.2 µM (inactive)	> 100 µM (inactive)	–
COc1cccc(-c2nc(-c3cnccn3)n(Cc3ccccc3)n2)c1	69.5 µM (inactive)	> 100 µM (inactive)	> 100 µM (inactive)	> 100 µM (inactive)	> 100 µM	> 100 µM (inactive)	–	> 100 µM (inactive)	52.1 µM (inactive)	> 100 µM (inactive)	54.3 µM (inactive)	86.1 µM (inactive)	89.3 µM (inactive)	> 100 µM (inactive)	> 100 µM (inactive)	> 100 µM (inactive)	> 100 µM (inactive)	91.4 µM (inactive)	88.7 µM (inactive)	–
C/C(=N\Nc1ccccc1Br)c1cccc(/C(C)=N/Nc2ccccc2Br)n1	84.5 µM (inactive)	> 100 µM (inactive)	> 100 µM (inactive)	> 100 µM (inactive)	> 100 µM	> 100 µM (inactive)	> 100 µM (inactive)	> 100 µM (inactive)	–	68.1 µM (inactive)	34.4 µM (inactive)	> 100 µM (inactive)	> 100 µM (inactive)	> 100 µM (inactive)	69.7 µM (inactive)	> 100 µM (inactive)	> 100 µM (inactive)	–	80.7 µM (inactive)	66.8 µM (inactive)
OC1(c2ccccc2)CCCCCCCCC(O)(c2ccccc2)CCCCCCCC1 (stereo not given)	> 100 µM (inactive)	> 100 µM (inactive)	> 100 µM (inactive)	> 100 µM (inactive)	> 100 µM	> 100 µM (inactive)	–	> 100 µM (inactive)	> 100 µM (inactive)	> 100 µM (inactive)	> 100 µM (inactive)	> 100 µM (inactive)	> 100 µM (inactive)	> 100 µM (inactive)	> 100 µM (inactive)	> 100 µM (inactive)	> 100 µM (inactive)	> 100 µM (inactive)	> 100 µM (inactive)	> 100 µM (inactive)
O=S(=O)(Oc1ccc2ccccc2c1-c1c(OS(=O)(=O)C(F)(F)F)ccc2ccccc12)C(F)(F)F	> 100 µM (inactive)	35 µM (inactive)	66.4 µM (inactive)	31 µM (inactive)	32.4 µM	–	79.1 µM (inactive)	75.2 µM (inactive)	37.7 µM (inactive)	41.8 µM (inactive)	> 100 µM (inactive)	> 100 µM (inactive)	7.01 µM (inactive)	7.67 µM (inactive)	–	32.1 µM (inactive)	1.32 µM (inactive)	> 100 µM (inactive)	> 100 µM (inactive)	> 100 µM (inactive)
CCCCCCc1cc2cc(-c3csc(-c4ccc(OC)cc4)n3)c(=O)oc2cc1O	5.28 µM (inactive)	16.7 µM (inactive)	20.2 µM (inactive)	15.3 µM (inactive)	17.1 µM	12.6 µM (inactive)	14 µM (inactive)	–	–	–	13.9 µM (inactive)	10.2 µM (inactive)	9.06 µM (inactive)	19.6 µM (inactive)	14 µM (inactive)	5.24 µM (inactive)	8.51 µM (inactive)	6.55 µM (inactive)	5.45 µM (inactive)	–
COCCOCN(C(=O)C1=CCC2(CC1)OCCO2)c1ccccc1I	> 50 µM (inactive)	> 50 µM (inactive)	29.2 µM (inactive)	> 50 µM (inactive)	> 50 µM	> 50 µM (inactive)	> 50 µM (inactive)	> 50 µM (inactive)	–	> 50 µM (inactive)	> 50 µM (inactive)	> 50 µM (inactive)	> 50 µM (inactive)	> 50 µM (inactive)	> 50 µM (inactive)	> 50 µM (inactive)	> 50 µM (inactive)	> 50 µM (inactive)	–	–
CCCCCCCC(=O)OCC1OC(n2cc(F)c(=O)[nH]c2=O)C(N)C(O)C1O (stereo not given)	> 100 µM (inactive)	> 100 µM (inactive)	> 100 µM (inactive)	> 100 µM (inactive)	> 100 µM	–	> 100 µM (inactive)	> 100 µM (inactive)	> 100 µM (inactive)	> 100 µM (inactive)	> 100 µM (inactive)	> 100 µM (inactive)	> 100 µM (inactive)	> 100 µM (inactive)	–	> 100 µM (inactive)	> 100 µM (inactive)	> 100 µM (inactive)	> 100 µM (inactive)	> 100 µM (inactive)
CON(C)C(=O)C(Cc1ccccc1)NC(=O)OC(C)(C)C (stereo not given)	> 100 µM (inactive)	> 100 µM (inactive)	> 100 µM (inactive)	> 100 µM (inactive)	> 100 µM	–	> 100 µM (inactive)	> 100 µM (inactive)	–	> 100 µM (inactive)	> 100 µM (inactive)	> 100 µM (inactive)	> 100 µM (inactive)	> 100 µM (inactive)	> 100 µM (inactive)	> 100 µM (inactive)	> 100 µM (inactive)	> 100 µM (inactive)	> 100 µM (inactive)	> 100 µM (inactive)
O=c1cc(-c2ccccc2F)[nH]c2ccc(N3CCCC3)cc12	0.0442 µM (active)	0.0504 µM (active)	0.00138 µM (active)	0.00179 µM (active)	0.033 µM	0.0398 µM (active)	–	0.00155 µM (active)	0.0326 µM (active)	–	–	0.465 µM (active)	0.0419 µM (active)	0.498 µM (active)	0.237 µM (active)	0.0381 µM (active)	0.1 µM (active)	0.0185 µM (active)	0.792 µM (active)	> 100 µM (inactive)
O=C(CCCN1CCC(O)(c2ccc(Cl)cc2)CC1)c1ccc(F)cc1 [HALOPERIDOL]	19.4 µM (inactive)	42.8 µM (inactive)	82.4 µM (inactive)	–	16.6 µM	18 µM (inactive)	32.2 µM (inactive)	31 µM (inactive)	20.6 µM (inactive)	18.3 µM (inactive)	15.6 µM (inactive)	18 µM (inactive)	15.9 µM (inactive)	48.1 µM (inactive)	39.8 µM (inactive)	20.7 µM (inactive)	20.9 µM (inactive)	2.31 µM (inactive)	57.3 µM (inactive)	19.6 µM (inactive)
